Tested on: P. Falciparum NF54
Experiment: Plasmodium falciparum in vitro assay ([3H]-hypoxanthine incorporation)
Assay type: cell-based
Conditions: Plasmodium falciparum, Erythrocyte, P. Falciparum NF54, erythrocytic stages in human red blood cells, 50% human serum
Method: In Vitro Antimalarial Activity: Plasmodium falciparum In Vitro Assay: In vitro activity against erythrocytic stages of P. Falciparum in human red blood cells is determined using a [^3H]-hypoxanthine incorporation assay. One strain sensitive to all drugs (P. […] After 48 hours, [^3H]-hypoxanthine (0.5 μCi) is added to each well of a plate. The plates are incubated for a further 24 hours under the same conditions then harvested with a Betaplate cell harvester (Wallac) and washed with distilled water. The dried filters are inserted into a plastic foil with 10 mL of scintillation fluid and counted in a Betaplate liquid scintillation counter. IC50 values are calculated from sigmoidal inhibition curves using Microsoft Excel.

Which IC50 does the source give for CN(c1ccncc1)c1ccc(CN(C(=O)/C=C/c2ccc(C(F)(F)F)cc2)C2CCN(Cc3ccc(C(F)(F)F)cc3)CC2)cc1 [Example 3, (E)-N-[4-(Methyl-pyridin-4-yl-amino)-benzyl]-N-[1-(4-trifluoromethyl-benzyl)-piperidin-4-yl]-3-(4-trifluoromethyl-phenyl)-acrylamide] here?
Its IC50 is 72 nM.

Cc1nc(CN2CCC(N(Cc3ccc(N(C)c4ccncc4)cc3)C(=O)/C=C/c3ccc(C(F)(F)F)cc3)CC2)co1 [Example 4, (E)-N-[1-(2-Methyl-oxazol-4-ylmethyl)-piperidin-4-yl]-N-[4-(methyl-pyridin-4-yl-amino)-benzyl]-3-(4-trifluoromethyl-phenyl)-acrylamide] was tested. Which IC50 did it give?
Its IC50 is 133 nM.

CN(c1ccncc1)c1ccc(CN(C(=O)/C=C/c2ccc(C(F)(F)F)cc2)C2CCN(C3CCCC3)CC2)cc1 [Example 5, (E)-N-(1-Cyclopentyl-piperidin-4-yl)-N-[4-(methyl-pyridin-4-yl-amino)-benzyl]-3-(4-trifluoromethyl-phenyl)-acrylamide] was tested. Which IC50 did it give?
Its IC50 is 11 nM.

With CN(c1ccncc1)c1ccc(CN(C(=O)/C=C/c2ccc(C(F)(F)F)cc2)C2CCN(Cc3ccccc3)CC2)cc1 [Example 6, (E)-N-(1-Benzyl-piperidin-4-yl)-N-[4-(methyl-pyridin-4-yl-amino)-benzyl]-3-(4-trifluoromethyl-phenyl)-acrylamide] as the molecule, how does the IC50 read?
Its IC50 is 58 nM.

How did the IC50 turn out when CCN1CCC(N(Cc2ccc(N(C)c3ccncc3)cc2)C(=O)/C=C/c2ccc(C(F)(F)F)cc2)CC1 [Example 7, (E)-N-(1-Ethyl-piperidin-4-yl)-N-[4-(methyl-pyridin-4-yl-amino)-benzyl]-3-(4-trifluoromethyl-phenyl)-acrylamide] was run?
Its IC50 is 26 nM.

With CC(C)CCN1CCC(N(Cc2ccc(N(C)c3ccncc3)cc2)C(=O)/C=C/c2ccc(C(F)(F)F)cc2)CC1 [Example 8, (E)-N-[1-(3-Methyl-butyl)-piperidin-4-yl]-N-[4-(methyl-pyridin-4-yl-amino)-benzyl]-3-(4-trifluoromethyl-phenyl)-acrylamide] as the molecule, how does the IC50 read?
Its IC50 is 43 nM.

For CN(c1ccncc1)c1ccc(CN(C(=O)/C=C/c2ccc(C(F)(F)F)cc2)C2CCN(CC3CC3)CC2)cc1 [Example 9, (E)-N-(1-Cyclopropylmethyl-piperidin-4-yl)-N-[4-(methyl-pyridin-4-yl-amino)-benzyl]-3-(4-trifluoromethyl-phenyl)-acrylamide], which IC50 is on record?
Its IC50 is 27 nM.

With CN(c1ccncc1)c1ccc(CN(C(=O)/C=C/c2ccc(C(F)(F)F)cc2)C2CCN(CC3CC4C=CC3C4)CC2)cc1 (stereo not drawn) [Example 10, (E)-N-(1′-Bicyclo[2.2.1]hept-5-en-2-ylmethyl-piperidin-4-yl)-N-[4-(methyl-pyridin-4-yl-amino)-benzyl]-3-(4-trifluoromethyl-phenyl)-acrylamide] as the molecule, how does the IC50 read?
The IC50 was 14 nM.

How did the IC50 turn out when CN(c1ccncc1)c1ccc(CN(C(=O)/C=C/c2ccc(C(F)(F)F)cc2)C2CCN(Cc3ccc(Cl)c(Cl)c3)CC2)cc1 [Example 11, (E)-N-[1-(3,4-Dichloro-benzyl)-piperidin-4-yl]-N-[4-(methyl-pyridin-4-yl-amino)-benzyl]-3-(4-trifluoromethyl-phenyl)-acrylamide] was run?
Its IC50 is 84 nM.

How did the IC50 turn out when Cc1ccc(CN2CCC(N(Cc3ccc(N(C)c4ccncc4)cc3)C(=O)/C=C/c3ccc(C(F)(F)F)cc3)CC2)cc1 [Example 12, (E)-N-[1-(4-Methyl-benzyl)-piperidin-4-yl]-N-[4-(methyl-pyridin-4-yl-amino)-benzyl]-3-(4-trifluoromethyl-phenyl)-acrylamide] was run?
Its IC50 is 29 nM.

How did the IC50 turn out when COc1ccc(CN2CCC(N(Cc3ccc(N(C)c4ccncc4)cc3)C(=O)/C=C/c3ccc(C(F)(F)F)cc3)CC2)cc1 [Example 13, (E)-N-[1-(4-Methoxy-benzyl)-piperidin-4-yl]-N-[4-(methyl-pyridin-4-yl-amino)-benzyl]-3-(4-trifluoromethyl-phenyl)-acrylamide] was run?
Its IC50 is 50 nM.

With CN(c1ccncc1)c1ccc(CN(C(=O)/C=C/c2ccc(C(F)(F)F)cc2)C2CCN(CCc3ccccc3)CC2)cc1 [Example 14, (E)-N-[4-(Methyl-pyridin-4-yl-amino)-benzyl]-N-(1-phenethyl-piperidin-4-yl)-3-(4-trifluoromethyl-phenyl)-acrylamide] as the molecule, how does the IC50 read?
Its IC50 is 55 nM.

For CN(c1ccncc1)c1ccc(CN(C(=O)/C=C/c2ccc(C(F)(F)F)cc2)C2CCN(CC(c3ccccc3)c3ccccc3)CC2)cc1 [Example 15, (E)-N-[1-(2,2-Diphenyl-ethyl)-piperidin-4-yl]-N-[4-(methyl-pyridin-4-yl-amino)-benzyl]-3-(4-trifluoromethyl-phenyl)-acrylamide], which IC50 is on record?
The IC50 was 41 nM.

For CN(c1ccncc1)c1ccc(CN(C(=O)/C=C/c2ccc(C(F)(F)F)cc2)C2CCN(CCC(F)(F)F)CC2)cc1 [Example 16, (E)-N-[4-(Methyl-pyridin-4-yl-amino)-benzyl]-3-(4-trifluoromethyl-phenyl)-N-[1-(3,3,3-trifluoro-propyl)-piperidin-4-yl]-acrylamide], which IC50 is on record?
The IC50 was 154 nM.

Which IC50 does the source give for CN(c1ccncc1)c1ccc(CN(C(=O)/C=C/c2ccc(C(F)(F)F)cc2)C2CCN(Cc3ccnn3C)CC2)cc1 [Example 17, (E)-N-[1-(2-Methyl-2H-pyrazol-3-ylmethyl)-piperidin-4-yl]-N-[4-(methyl-pyridin-4-yl-amino)-benzyl]-3-(4-trifluoromethyl-phenyl)-acrylamide] here?
Its IC50 is 180 nM.

How did the IC50 turn out when CN(c1ccncc1)c1ccc(CN(C(=O)/C=C/c2ccc(C(F)(F)F)cc2)C2CCN(Cc3cnn(-c4ccccc4)c3)CC2)cc1 [Example 18, (E)-N-[4-(Methyl-pyridin-4-yl-amino)-benzyl]-N-[1-(1-phenyl-1H-pyrazol-4-ylmethyl)-piperidin-4-yl]-3-(4-trifluoromethyl-phenyl)-acrylamide] was run?
Its IC50 is 51 nM.

With CN(c1ccncc1)c1ccc(CN(C(=O)/C=C/c2ccc(C(F)(F)F)cc2)C2CCN(Cc3cncn3C)CC2)cc1 [Example 19, (E)-N-[1-(3-Methyl-3H-imidazol-4-ylmethyl)-piperidin-4-yl]-N-[4-(methyl-pyridin-4-yl-amino)-benzyl]-3-(4-trifluoromethyl-phenyl)-acrylamide] as the molecule, how does the IC50 read?
Its IC50 is 54 nM.

Which IC50 does the source give for CN(c1ccncc1)c1ccc(CN(C(=O)/C=C/c2ccc(C(F)(F)F)cc2)C2CCN(Cc3ncc4ccccn34)CC2)cc1 [Example 20, (E)-N-(1-Imidazo[1,5-a]pyridin-3-ylmethyl-piperidin-4-yl)-N-[4-(methyl-pyridin-4-yl-amino)-benzyl]-3-(4-trifluoromethyl-phenyl)-acrylamide] here?
Its IC50 is 256 nM.

Which IC50 does the source give for CN(c1ccncc1)c1ccc(CN(C(=O)/C=C/c2ccc(C(F)(F)F)cc2)C2CCN(Cc3nc4ccccc4n3C)CC2)cc1 [Example 21, (E)-N-[1-(1-Methyl-1H-benzoimidazol-2-ylmethyl)-piperidin-4-yl]-N-[4-(methyl-pyridin-4-yl-amino)-benzyl]-3-(4-trifluoromethyl-phenyl)-acrylamide] here?
Its IC50 is 355 nM.

Which IC50 does the source give for CN(c1ccncc1)c1ccc(CN(C(=O)/C=C/c2ccc(C(F)(F)F)cc2)C2CCN(Cc3ccccn3)CC2)cc1 [Example 22, (E)-N-[4-(Methyl-pyridin-4-yl-amino)-benzyl]-N-(1-pyridin-2-ylmethyl-piperidin-4-yl)-3-(4-trifluoromethyl-phenyl)-acrylamide] here?
Its IC50 is 176 nM.

How did the IC50 turn out when CN(c1ccncc1)c1ccc(CN(C(=O)/C=C/c2ccc(C(F)(F)F)cc2)C2CCN(Cc3cccnc3)CC2)cc1 [Example 23, (E)-N-[4-(Methyl-pyridin-4-yl-amino)-benzyl]-N-(1-pyridin-3-ylmethyl-piperidin-4-yl)-3-(4-trifluoromethyl-phenyl)-acrylamide] was run?
The IC50 was 123 nM.

For Cc1ncc(CN2CCC(N(Cc3ccc(N(C)c4ccncc4)cc3)C(=O)/C=C/c3ccc(C(F)(F)F)cc3)CC2)cn1 [Example 24, (E)-N-[4-(Methyl-pyridin-4-yl-amino)-benzyl]-N-[1-(2-methyl-pyrimidin-5-ylmethyl)-piperidin-4-yl]-3-(4-trifluoromethyl-phenyl)-acrylamide], which IC50 is on record?
The IC50 was 328 nM.

CN(c1ccncc1)c1ccc(CN(C(=O)/C=C/c2ccc(C(F)(F)F)cc2)C2CCN(Cc3ccn4ccnc4c3)CC2)cc1 [Example 25, (E)-N-(1-Imidazo[1,2-a]pyridin-7-ylmethyl-piperidin-4-yl)-N-[4-(methyl-pyridin-4-yl-amino)-benzyl]-3-(4-trifluoromethyl-phenyl)-acrylamide] was tested. Which IC50 did it give?
The IC50 was 41 nM.

How did the IC50 turn out when CN1CCC(N2CCC(N(Cc3ccc(N(C)c4ccncc4)cc3)C(=O)/C=C/c3ccc(C(F)(F)F)cc3)CC2)CC1 [Example 26, (E)-N-(1′-Methyl-[1,4′]bipiperidinyl-4-yl)-N-[4-(methyl-pyridin-4-yl-amino)-benzyl]-3-(4-trifluoromethyl-phenyl)-acrylamide] was run?
Its IC50 is 14 nM.

CN(c1ccncc1)c1ccc(CN(C(=O)/C=C/c2ccc(C(F)(F)F)cc2)C2CCN(Cc3ccc(C#N)cc3)CC2)cc1 [Example 27, (E)-N-[1-(4-Cyano-benzyl)-piperidin-4-yl]-N-[4-(methyl-pyridin-4-yl-amino)-benzyl]-3-(4-trifluoromethyl-phenyl)-acrylamide] was tested. Which IC50 did it give?
The IC50 was 64 nM.

Which IC50 does the source give for CC(=O)n1cc(CN2CCC(N(Cc3ccc(N(C)c4ccncc4)cc3)C(=O)/C=C/c3ccc(C(F)(F)F)cc3)CC2)c2ccccc21 [Example 28, (E)-N-[1-(1-Acetyl-1H-indol-3-ylmethyl)-piperidin-4-yl]-N-[4-(methyl-pyridin-4-yl-amino)-benzyl]-3-(4-trifluoromethyl-phenyl)-acrylamide] here?
The IC50 was 44 nM.

For CN(c1ccncc1)c1ccc(CN(C(=O)/C=C/c2ccc(C(F)(F)F)cc2)C2CCN(Cc3ncccn3)CC2)cc1 [Example 29, (E)-N-[4-(Methyl-pyridin-4-yl-amino)-benzyl]-N-(1-pyrimidin-2-ylmethyl-piperidin-4-yl)-3-(4-trifluoromethyl-phenyl)-acrylamide], which IC50 is on record?
The IC50 was 296 nM.
